One data set deals with Alternaria solani. Briefly: Example A1: Alternaria solani / tomato / leaf disc (early blight). Format: in vivo. As to conditions: foliar, tomato leaf disks inoculated 2 days after application, compared to untreated control.
The subject of data set [1] is Monographella nivalis (Microdochium nivale). Briefly: Example A6: Monographella nivalis (Microdochium nivale) / liquid culture (foot rot cereals). The format is cell-based. As to conditions: read-out: control of Monographella nivalis.
The subject of data set [2] is Glomerella lagenarium (Colletotrichum lagenarium). Briefly: Example A3: Glomerella lagenarium (Colletotrichum lagenarium) / liquid culture (anthracnose). Format: cell-based. The following applies: Colletotrichum orbiculare; read-out: control of Glomerella lagenarium.
A further data set has as its system Pyrenophora teres. Briefly: Example A12: Pyrenophora teres / barley / leaf disc preventative (net blotch). Format: in vivo. The following applies: foliar, inoculated 2 days after application, compared to untreated control.
In data set [3] the test system is Botryotinia fuckeliana (Botrytis cinerea). As to the kind of experiment: Example A2: Botryotinia fuckeliana (Botrytis cinerea) / liquid culture (gray mould). As to conditions: read-out: control of Botryotinia fuckeliana. Format: cell-based. An excerpt: Example A2: Botryotinia Fuckeliana (Botrytis Cinerea) / Liquid Culture (Gray Mould) Conidia of the fungus from cryogenic storage are directly mixed into nutrient broth (Vogels broth). […] […].38.

Data set [4] concerns Magnaporthe grisea (Pyricularia oryzae). Briefly: whole plant or invertebrate. The format is in vivo. As to conditions: foliar, read-out: control of Magnaporthe grisea.
Another data set has as its system Phakopsora pachyrhizi. As to the kind of experiment: Example A8: Phakopsora pachyrhizi / soybean / preventative (soybean rust). The following applies: foliar, soybean leaf disks preventative, inoculated one day after application, compared to untreated control. Format: in vivo.
Data set [5] has as its system Puccinia recondita f. sp. tritici. The format is in vivo. The following applies: foliar, 24 h, wheat leaf disc curative, applied 1 day after inoculation, compared to untreated control.
For data set [6] the test system is unchanged. The format is in vivo. The following applies: foliar, wheat leaf disc preventative, inoculated 1 day after application, compared to untreated control.
The subject of data set [7] is Mycosphaerella graminicola (Septoria tritici). Briefly: Example A14: Mycosphaerella graminicola (Septoria tritici) / liquid culture (Septoria blotch). Format: cell-based. As to conditions: Zymoseptoria tritici; read-out: control of Mycosphaerella graminicola.
Data set [8] relates to Mycosphaerella arachidis (Cercospora arachidicola). Briefly: Example A7: Mycosphaerella arachidis (Cercospora arachidicola) / liquid culture (early leaf spot). The format is cell-based. As to conditions: read-out: control of Mycosphaerella arachidis.

Data on 12 compounds can be found in US20230270114A1, “FUNGICIDAL COMPOSITIONS” (SYNGENTA CROP PROTECTION AG, priority 2020, published 2023).

Each structure is given as a SMILES string. Like-named read-outs stand apart in the source and are kept apart here.

With `Cc1sc(N(C(=O)C(C)C)c2cc(F)nc(F)c2)nc1C(=O)NC1CCC1(C)C` (stereo not shown) [X.38, 2-[(2,6-difluoro-4-pyridyl)-(2-methylpropanoyl)amino]-N-(2,2-dimethylcyclobutyl)-5-methyl-thiazole-4-carboxamide], the melting point (as a rule, the temperature, or range, at which the solid turns liquid) was 123 to 126 °C. For the same compound, the pest or weed control at 200 ppm in the data set on Alternaria solani was no less than 80%. The inhibition of growth at 20 ppm in [1] was no less than 80%. Further, in [2], the inhibition of growth at 20 ppm is no less than 80%. In the data set with Pyrenophora teres, this compound showed a pest or weed control at 200 ppm of no less than 80%. Moreover, in data set [3], the inhibition of growth at 20 ppm is no less than 70%. In addition, the pest or weed control at 200 ppm in data set [4] is no less than 80%. Further, in the data set on Phakopsora pachyrhizi, the pest or weed control at 200 ppm is no less than 80%. The pest or weed control at 200 ppm in data set [5] is no less than 80%. This compound also displayed a pest or weed control at 200 ppm in data set [6] of no less than 80%.
Turning to `CCOCC(=O)N(c1cc(F)nc(F)c1)c1nc(C(=O)NC2CCC2(C)C)c(C)s1` (stereo not shown) [X.15, 2-[(2,6-difluoro-4-pyridyl)-(2-ethoxyacetyl)amino]-N-(2,2-dimethylcyclobutyl)-5-methyl-thiazole-4-carboxamide], the pest or weed control at 200 ppm (with Alternaria solani; with Pyrenophora teres; in [4]; in the data set with Phakopsora pachyrhizi; in data set [5]; in data set [6]) was no less than 80% each time. The inhibition of growth at 20 ppm in data set [1] was no less than 80%; in data set [2] it was no less than 80%; in data set [3] it was no less than 70%; in data set [7] it was no less than 80%.
Turning to `CC(=O)OCC(=O)N(c1cc(F)nc(F)c1)c1nc(C(=O)NC2CCC2(C)C)c(C)s1` (stereo not shown) [X.08, [2-[(2,6-difluoro-4-pyridyl)-[4-[(2,2-dimethylcyclobutyl)carbamoyl]-5-methyl-thiazol-2-yl]amino]-2-oxo-ethyl] acetate], the pest or weed control at 200 ppm (in the data set on Alternaria solani; in the data set with Pyrenophora teres; in [4]; in the data set on Phakopsora pachyrhizi; in data set [5]; in data set [6]) was no less than 80% in each case. The inhibition of growth at 20 ppm in data set [1], in data set [2], in [7] and in data set [8] was no less than 80% each time.
For the compound `Cc1sc(N(C(=O)CF)c2cc(F)nc(F)c2)nc1C(=O)NC1CCC1(C)C` (stereo not shown) [X.27, 2-[(2,6-difluoro-4-pyridyl)-(2-fluoroacetyl)amino]-N-(2,2-dimethylcyclobutyl)-5-methyl-thiazole-4-carboxamide], the pest or weed control at 200 ppm (in the data set on Alternaria solani; in the data set with Pyrenophora teres; in data set [4] (200 ppm); in the data set with Phakopsora pachyrhizi; in data set [5]; in data set [6]) was no less than 80% throughout. For the same compound, the inhibition of growth at 20 ppm in data set [1], in data set [2], in [7] and in data set [8] was no less than 80% each time.
As for `Cc1sc(N(C(=O)CCl)c2cc(F)nc(F)c2)nc1C(=O)NC1CCC1(C)C` (stereo not shown) [X.17, 2-[(2-chloroacetyl)-(2,6-difluoro-4-pyridyl)amino]-N-(2,2-dimethylcyclobutyl)-5-methyl-thiazole-4-carboxamide], the pest or weed control at 200 ppm (in the data set with Alternaria solani; in the data set on Pyrenophora teres; in data set [4]; with Phakopsora pachyrhizi; in data set [5]; in data set [6]) was no less than 80% each time. Also, the inhibition of growth at 20 ppm in [1], in data set [2], in data set [7] and in data set [8] was no less than 80% each time.
As for `Cc1sc(N(C=O)c2cc(F)nc(F)c2)nc1C(=O)NC1CCC1(C)C` (stereo not shown) [X.33, 2-[(2,6-difluoro-4-pyridyl)-formyl-amino]-N-(2,2-dimethylcyclobutyl)-5-methylthiazole-4-carboxamide], the pest or weed control at 200 ppm (with Alternaria solani; in the data set with Pyrenophora teres; in [4]; in the data set on Phakopsora pachyrhizi; in data set [5]; in data set [6]) was no less than 80% in each case. Also, the inhibition of growth at 20 ppm in [1] is no less than 80%; in data set [2], no less than 80%; in [3], no less than 70%; in data set [7] it was no less than 80%; in data set [8], no less than 80%.
Regarding `CCOC(=O)C(=O)N(c1cc(F)nc(F)c1)c1nc(C(=O)NC2CCC2(C)C)c(C)s1` (stereo not shown) [X.34, ethyl 2-[(2,6-difluoro-4-pyridyl)-[4-[(2,2-dimethylcyclobutyl)carbamoyl]-5-methyl-thiazol-2-yl]amino]-2-oxo-acetate], the pest or weed control at 200 ppm (in the data set with Alternaria solani; in the data set on Pyrenophora teres; in data set [4]; in the data set on Phakopsora pachyrhizi; in data set [5]; in data set [6]) was no less than 80% throughout. Further, the inhibition of growth at 20 ppm is no less than 80% in [1]; no less than 80% in data set [2]; no less than 70% in [3]; no less than 80% in data set [7]; no less than 80% in [8].
With `CC(=O)N(c1cc(F)nc(F)c1)c1nc(C(=O)NC2CCC2(C)C)c(C)s1` (stereo not shown) [X.36, 2-[acetyl-(2,6-difluoro-4-pyridyl)amino]-N-(2,2-dimethylcyclobutyl)-5-methylthiazole-4-carboxamide], the pest or weed control at 200 ppm (in the data set with Alternaria solani; in the data set on Pyrenophora teres; in data set [4]; in data set [6]) was no less than 80% throughout. The inhibition of growth at 20 ppm was no less than 80% in [1], no less than 80% in [2], no less than 70% in data set [3] and no less than 80% in [7].
As to `COC(=O)CC(=O)N(c1cc(F)nc(F)c1)c1nc(C(=O)NC2CCC2(C)C)c(C)s1` (stereo not shown) [X.18, methyl 3-[(2,6-difluoro-4-pyridyl)-[4-[(2,2-dimethylcyclobutyl)carbamoyl]-5-methyl-thiazol-2-yl]amino]-3-oxo-propanoate], the pest or weed control at 200 ppm (in the data set with Alternaria solani; in the data set with Pyrenophora teres; in data set [4]; in data set [5]; in data set [6]) was no less than 80% throughout. Besides, the inhibition of growth at 20 ppm in data set [1], in [2], in data set [7] and in data set [8] was no less than 80% each time.
Regarding `COCC(=O)N(c1cc(F)nc(F)c1)c1nc(C(=O)NC2CCC2(C)C)c(C)s1` (stereo not shown) [X.29, 2-[(2,6-difluoro-4-pyridyl)-(2-methoxyacetyl)amino]-N-(2,2-dimethylcyclobutyl)-5-methyl-thiazole-4-carboxamide], the pest or weed control at 200 ppm (in the data set on Alternaria solani; with Pyrenophora teres; in data set [4]; in the data set with Phakopsora pachyrhizi; in data set [5]; in [6]) was no less than 80% each time. Besides, the inhibition of growth at 20 ppm is no less than 80% in data set [1]; no less than 80% in data set [2]; no less than 70% in data set [3]; no less than 80% in [7]; no less than 80% in [8].
In the case of `Cc1sc(N(C(=O)COCc2ccccc2)c2cc(F)nc(F)c2)nc1C(=O)NC1CCC1(C)C` (stereo not shown) [X.14, 2-[(2-benzyloxyacetyl)-(2,6-difluoro-4-pyridyl)amino]-N-(2,2-dimethylcyclobutyl)-5-methyl-thiazole-4-carboxamide], the pest or weed control at 200 ppm (with Alternaria solani; in the data set with Pyrenophora teres; in data set [4]; in the data set on Phakopsora pachyrhizi; in [5]; in data set [6]) was no less than 80% throughout. Further, the inhibition of growth at 20 ppm is no less than 80% in data set [1], no less than 80% in data set [2], no less than 70% in [3] and no less than 80% in data set [7].
`Cc1sc(N(C(=O)c2ccccc2)c2cc(F)nc(F)c2)nc1C(=O)NC1CCC1(C)C` (stereo not shown) [X.35, 2-[benzoyl-(2,6-difluoro-4-pyridyl)amino]-N-(2,2-dimethylcyclobutyl)-5-methylthiazole-4-carboxamide]: the pest or weed control at 200 ppm (with Alternaria solani; in the data set with Pyrenophora teres; in data set [4]; with Phakopsora pachyrhizi; in data set [6]) was no less than 80% each time. Besides, the inhibition of growth at 20 ppm in data set [1] is no less than 80%; in [2], no less than 80%; in data set [3] it was no less than 70%.
